Source: PubChem BioAssay AID256 (DTP/NCI, 2004)
Several values for one entry are separate records, joined by “and”; a condition that tells them apart may be missing. Equal entries are not always repeated. Toxic doses and inconclusive results are not listed. Rule for the calls: active = survival T/C of 150% or more; inactive = T/C below 125% in these data.

System: CD2F1 mice, L1210 leukemia ip, survival T/C
Assay: NCI In Vivo Anticancer Drug Screen. Data for tumor model L1210 Leukemia (intraperitoneal) in CD2F1 (CDF1) mice
Settings: higher = longer survival
Summary of the method: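 In this screen, transplantable tumors were grown in mice given either the compound or its vehicle. Results were expressed as the treated measurement relative to the control measurement.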

[1] = endpoint: mean survival time, dose: 400.0 mg/kg/injection, schedule: Q01DX009 (ip), vehicle: saline with Tween-80
[2] = endpoint: mean survival time, dose: 400.0 mg/kg/injection, schedule: Q04DX003 (ip), vehicle: saline with Tween-80
[3] = endpoint: mean survival time, dose: 50.0 mg/kg/injection, schedule: Q01DX009 (ip), vehicle: Klucel (hydroxypropylcellulose) (HPC)
[4] = endpoint: mean survival time, dose: 100.0 mg/kg/injection, schedule: Q01DX009 (ip), vehicle: Klucel (hydroxypropylcellulose) (HPC)
[5] = endpoint: mean survival time, dose: 200.0 mg/kg/injection, schedule: Q01DX009 (ip), vehicle: Klucel (hydroxypropylcellulose) (HPC)
[6] = endpoint: mean survival time, dose: 12.5 mg/kg/injection, schedule: Q04DX003 (ip), vehicle: saline with Tween-80
[7] = endpoint: mean survival time, dose: 25.0 mg/kg/injection, schedule: Q04DX003 (ip), vehicle: saline with Tween-80
[8] = endpoint: mean survival time, dose: 12.5 mg/kg/injection, schedule: Q01DX009 (ip), vehicle: saline with Tween-80
[9] = endpoint: mean survival time, dose: 25.0 mg/kg/injection, schedule: Q01DX009 (ip), vehicle: saline with Tween-80
[10] = endpoint: mean survival time, dose: 50.0 mg/kg/injection, schedule: Q01DX009 (ip), vehicle: saline with Tween-80
[11] = endpoint: mean survival time, dose: 100.0 mg/kg/injection, schedule: Q01DX009 (ip), vehicle: saline with Tween-80
[12] = endpoint: mean survival time, dose: 200.0 mg/kg/injection, schedule: Q01DX009 (ip), vehicle: saline with Tween-80
[13] = endpoint: mean survival time, dose: 100.0 mg/kg/injection, schedule: Q01DX001 (ip), vehicle: saline
[14] = endpoint: mean survival time, dose: 200.0 mg/kg/injection, schedule: Q01DX001 (ip), vehicle: saline
[15] = endpoint: mean survival time, dose: 400.0 mg/kg/injection, schedule: Q01DX001 (ip), vehicle: saline
[16] = endpoint: mean survival time, dose: 100.0 mg/kg/injection, schedule: Q04DX003 (ip), vehicle: saline
[17] = endpoint: mean survival time, dose: 200.0 mg/kg/injection, schedule: Q04DX003 (ip), vehicle: saline
[18] = endpoint: mean survival time, dose: 400.0 mg/kg/injection, schedule: Q04DX003 (ip), vehicle: saline
[19] = endpoint: mean survival time, dose: 100.0 mg/kg/injection, schedule: Q04DX003 (ip), vehicle: saline with Tween-80
[20] = endpoint: mean survival time, dose: 200.0 mg/kg/injection, schedule: Q04DX003 (ip), vehicle: saline with Tween-80
[21] = endpoint: mean survival time, dose: 50.0 mg/kg/injection, schedule: Q04DX002 (ip), vehicle: saline with Tween-80
[22] = endpoint: mean survival time, dose: 100.0 mg/kg/injection, schedule: Q04DX003 (ip), vehicle: other

Measured: T/C

O=C([O-])[O-].O=[N+]([O-])O.[Co+3].[NH2-].[NH2-].[NH2-].[NH2-]
inactive: [1] 93 % of control | [2] 94 % of control

CCOC(=O)C1(C(=O)OCC)CCC(OCC)N1C(=O)c1cc2c(cc1[N+](=O)[O-])OCO2 (stereo not drawn)
inactive: [3] 97 % of control | [4] 101 % of control | [5] 97 % of control

CC(C)CCC(=O)c1ccoc1
inactive: endpoint: median survival time, dose: 0.12 mg/kg/injection, schedule: Q03HX015 (ip), vehicle: saline with Tween-80 100 % of control | endpoint: median survival time, dose: 0.25 mg/kg/injection, schedule: Q03HX015 (ip), vehicle: saline with Tween-80 103 % of control | endpoint: median survival time, dose: 0.5 mg/kg/injection, schedule: Q03HX015 (ip), vehicle: saline with Tween-80 101 % of control | endpoint: median survival time, dose: 1.0 mg/kg/injection, schedule: Q03HX015 (ip), vehicle: saline with Tween-80 100 % of control | endpoint: median survival time, dose: 2.0 mg/kg/injection, schedule: Q03HX015 (ip), vehicle: saline with Tween-80 96 % of control

O=C(O)CC(O)(CC(=O)O)C(=O)O.[Sn]
inactive: endpoint: mean survival time, dose: 6.25 mg/kg/injection, schedule: Q04DX003 (ip), vehicle: saline with Tween-80 98 % of control | [6] 90 % of control | [7] 102 % of control

O=c1oc2c(O)c(O)cc3c(=O)oc4c(O)c(O)cc1c4c23
inactive: endpoint: mean survival time, dose: 12.5 mg/kg/injection, schedule: Q01DX009 (ip), vehicle: Klucel (hydroxypropylcellulose) (HPC) 100 % of control | endpoint: mean survival time, dose: 25.0 mg/kg/injection, schedule: Q01DX009 (ip), vehicle: Klucel (hydroxypropylcellulose) (HPC) 113 % of control | [3] 113 % of control | [4] 106 % of control | [5] 95 % of control | endpoint: mean survival time, dose: 400.0 mg/kg/injection, schedule: Q01DX009 (ip), vehicle: Klucel (hydroxypropylcellulose) (HPC) 103 % of control

Cc1ccc(S(=O)(=O)NC(=S)S)cc1
inactive: [8] 102 % of control and 110 % of control | [9] 115 % of control and 103 % of control | [10] 110 % of control and 112 % of control | [11] 113 % of control and 103 % of control | [12] 105 % of control and 111 % of control | [1] 105 % of control and 109 % of control

O=C1c2cccc(O)c2C(=O)c2c(O)cccc21
inactive: [13] 100 % of control | [14] 102 % of control | [15] 100 % of control

O=C/C=C/Nc1ccccc1
inactive: endpoint: mean survival time, dose: 100.0 mg/kg/injection, schedule: Q01DX009 (ip), vehicle: saline 94 % of control | endpoint: mean survival time, dose: 200.0 mg/kg/injection, schedule: Q01DX009 (ip), vehicle: saline 102 % of control | endpoint: mean survival time, dose: 400.0 mg/kg/injection, schedule: Q01DX009 (ip), vehicle: saline 96 % of control

Cc1ccc(NC(=S)NCCO)cc1
inactive: [11] 86 % of control | [12] 92 % of control | [1] 88 % of control

NC1=NCNC(=O)N1
inactive: endpoint: mean survival time, dose: 6.25 mg/kg/injection, schedule: Q04DX003 (ip), vehicle: saline 102 % of control | endpoint: mean survival time, dose: 12.5 mg/kg/injection, schedule: Q04DX003 (ip), vehicle: saline 91 % of control | endpoint: mean survival time, dose: 25.0 mg/kg/injection, schedule: Q04DX003 (ip), vehicle: saline 93 % of control | endpoint: mean survival time, dose: 50.0 mg/kg/injection, schedule: Q04DX003 (ip), vehicle: saline 98 % of control | [16] 96 % of control | [17] 96 % of control | [18] 98 % of control

N#C/C(C(=S)S)=C(/O)c1ccccc1
inactive: [9] 102 % of control | [10] 101 % of control | [11] 102 % of control | [19] 94 % of control

Nc1nc(-c2ccccc2)c(Br)c(=O)[nH]1
inactive: [19] 104 % of control | [20] 96 % of control | [2] 93 % of control

CCN(CC)C(=O)c1ccncc1
inactive: [16] 101 % of control | [17] 104 % of control | [18] 101 % of control

CC1CC(C)SC(C)S1 (stereo not drawn)
inactive: [21] 102 % of control | endpoint: mean survival time, dose: 100.0 mg/kg/injection, schedule: Q04DX002 (ip), vehicle: saline with Tween-80 105 % of control | endpoint: mean survival time, dose: 200.0 mg/kg/injection, schedule: Q04DX002 (ip), vehicle: saline with Tween-80 97 % of control

COC1=CC(=O)C(C2CC(=O)c3c(O)cc(O)cc3O2)=CC1=O (stereo not drawn)
inactive: [11] 101 % of control | [19] 100 % of control | [20] 100 % of control | [2] 98 % of control

O=C1OC(c2ccccc2)(c2ccccc2)C(=O)N1c1ccc(Br)cc1
inactive: endpoint: median survival time, dose: 3.13 mg/kg/injection, schedule: Q04DX002 (ip), vehicle: saline with Tween-80 100 % of control | endpoint: median survival time, dose: 6.25 mg/kg/injection, schedule: Q04DX002 (ip), vehicle: saline with Tween-80 100 % of control | endpoint: median survival time, dose: 12.5 mg/kg/injection, schedule: Q04DX002 (ip), vehicle: saline with Tween-80 111 % of control | endpoint: median survival time, dose: 25.0 mg/kg/injection, schedule: Q04DX002 (ip), vehicle: saline with Tween-80 111 % of control | endpoint: median survival time, dose: 25.0 mg/kg/injection, schedule: Q04DX003 (ip), vehicle: saline with Tween-80 94 % of control

Oc1ccccc1C=Nc1ccccc1.Oc1ccccc1C=Nc1ccccc1.[Co]
inactive: [22] 92 % of control

C=COCCCCCCCCCCCCCCCCCC
inactive: [22] 108 % of control | endpoint: mean survival time, dose: 200.0 mg/kg/injection, schedule: Q04DX003 (ip), vehicle: other 108 % of control | endpoint: mean survival time, dose: 400.0 mg/kg/injection, schedule: Q04DX003 (ip), vehicle: other 98 % of control

CCCCOC(=O)CC(=O)OCCCC
inactive: [11] 102 % of control | [19] 101 % of control | [12] 104 % of control | [20] 93 % of control | [1] 96 % of control | [2] 93 % of control

CC(C)C(O)C(C)N (stereo not drawn)
inactive: [9] 113 % of control | [10] 95 % of control | [11] 93 % of control

C/C=C/C(OC(C)=O)OC(C)=O
inactive: [11] 97 % of control | [12] 103 % of control

CC(O)CN=C(N)C(N)=NCC(C)O (stereo not drawn)
inactive: endpoint: mean survival time, dose: 12.5 mg/kg/injection, schedule: Q04DX002 (ip), vehicle: saline with Tween-80 108 % of control | endpoint: mean survival time, dose: 25.0 mg/kg/injection, schedule: Q04DX002 (ip), vehicle: saline with Tween-80 101 % of control | [21] 97 % of control

NC(CCl)=NCc1ccccn1
inactive: endpoint: mean survival time, dose: 25.0 mg/kg/injection, schedule: Q04DX002 (ip), vehicle: saline 108 % of control | endpoint: mean survival time, dose: 50.0 mg/kg/injection, schedule: Q04DX002 (ip), vehicle: saline 97 % of control | endpoint: mean survival time, dose: 100.0 mg/kg/injection, schedule: Q04DX002 (ip), vehicle: saline 101 % of control

C=C(C)CCCC(C)C(O)C=O (stereo not drawn)
inactive: [13] 98 % of control | [14] 95 % of control | [15] 95 % of control

NC(=O)c1c(F)c(F)c(Oc2c(F)c(F)c(Oc3c(F)c(F)c(C(N)=O)c(F)c3F)c(F)c2F)c(F)c1F
inactive: [8] 103 % of control | [6] 101 % of control | [9] 100 % of control | [7] 101 % of control | [10] 101 % of control | endpoint: mean survival time, dose: 50.0 mg/kg/injection, schedule: Q04DX003 (ip), vehicle: saline with Tween-80 98 % of control
